Measured values reported in patent publication US20040142979A1, “Heteroarylsulfonylmethyl hydroxamic acids and amides and their use as protease inhibitors” (priority 2002, published 2004).

Tests used:
[1] = target: T1, Human recombinant MMP-1 (Homo sapiens, UniProt P03956); assay: In vitro MMP inhibition analysis (fluorogenic peptide substrate), MMP-1; assay type: biochemical; conditions: human recombinant enzyme; 4 μM substrate (A); apparent Ki without substrate correction
T1 construct: made in house; host or cells: MMP-1-transfected HT-1080 cells (spent media)
T1 sequence (P03956 100-469): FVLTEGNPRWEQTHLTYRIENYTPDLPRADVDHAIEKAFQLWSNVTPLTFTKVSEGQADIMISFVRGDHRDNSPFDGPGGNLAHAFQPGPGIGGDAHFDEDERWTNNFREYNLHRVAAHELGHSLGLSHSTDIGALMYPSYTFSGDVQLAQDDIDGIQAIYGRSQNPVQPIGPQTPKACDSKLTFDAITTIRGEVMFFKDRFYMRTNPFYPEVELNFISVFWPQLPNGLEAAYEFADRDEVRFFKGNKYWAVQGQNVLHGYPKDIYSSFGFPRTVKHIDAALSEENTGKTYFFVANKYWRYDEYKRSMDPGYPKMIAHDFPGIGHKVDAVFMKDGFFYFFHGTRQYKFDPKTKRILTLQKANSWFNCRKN
Procedure: (§1) Several compounds and salts were analyzed in an in vitro assay to determine their ability to inhibit the MMP cleavage of peptide substrates. Inhibition constant (Ki) were calculated from the assayed compound-MMP interactions.
(§2) Human recombinant MMP-1, MMP-2, MMP-9, MMP-13, and MMP-14 were used in this assay. All enzymes were prepared in Assignee's laboratories following usual laboratory procedures. Protocols for the preparation and use of these enzymes are available in the scientific literature. See, e.g., Enzyme Nomenclature (Academic Press, San Diego, Calif., 1992) (and the citations therein). See also, Freije et al., J. Biol. Chem., 269(24), 16766-16773 (1994).
The MMP-1 proenzyme was purified from the spent media of MMP-1-transfected HT-1080 cells provided by Dr. Harold Welgus of Washington University (St. Louis, Mo.). The protein was purified on a zinc chelating column.
(§3) All MMPs were activated using 4-aminophenylmercuric acetate (“APMA”, Sigma Chemical, St. Louis, Mo.) or trypsin. MMP-9 also was activated using human recombinant MMP-3 (purified in Assignee's laboratory following standard cloning and purification techniques).
(§4) The following fluorogenic, methoxycoumarin-containing polypeptide substrate (A) was used in the MMP inhibition assays:
(§5) MCA-ArgProLeuGlyLeuDpaAlaArgGluArgNH2 (A)
(§6) “MCA” is 7-methoxycoumarin-4-yl acetyl. Substrate (A) was prepared Assignee's laboratory. In the absence of MMP inhibitory activity, the substrate is cleaved at the Gly-Leu peptide bond. This cleavage separates the highly fluorogenic peptide from the 2,4-dinitrophenyl quencher, thus resulting in increase of fluorescent intensity.
(§7) The stock solutions of the assayed compounds and salts were prepared in 1% dimethyl sulfoxide (DMSO). These stock solutions were diluted in Buffer A (100 mM Tris-HCl, 100 mM NaCl, 10 mM CaCl2, 0.05% polyoxyethylene 23 lauryl ether, pH 7.5) to obtain solutions with different compound concentrations, i.e., assay solutions with different concentrations of the assayed MMP inhibitory compound. The experiment controls contained the same amount of Buffer A/DMSO as the assayed sample, but contained none of the tested compound or salt.
(§8) The assays from which the Ki determinations were made were performed as follows. The assayed compound samples were incubated in separate wells of untreated white polystyrene plates (Nunc Nalgene International, Rochester, N.Y.), and analyzed on a Tecan SpectraFlour Plus plate reader. The excitation wavelength was 330 nm, and the emission wavelength -420 nm. All samples (assayed compounds and controls) were incubated in separate plate wells at room temperature for 1 hr in the presence of 4 μM of MMP substrate (A). In the absence of MMP inhibitory activity, substrate (A) was cleaved at the Gly-Leu bond resulting in an increase of relative fluorescence. Inhibition was observed as a reduced rate of this increase in relative fluorescence. […] This protocol is a modification of method by Knight et al., FEBS Lett., 296(3), 263-266 (1992). Apparent inhibitory constants were determined by non-linear regression of reaction velocity as a function of inhibitor and enzyme concentration using Morrison's equation, as described by Kuzmic, P., et al., Anal. Biochem., 286(1):45-50 (2000). Modifications were made in the non-linear regression method to allow a common control reaction rate and effective enzyme concentration to be shared between all dose-response relationships on a given assay plate. Since the substrate concentration was chosen to be at or below the Km, the apparent Ki's from this analysis were reported as Ki's without correction for the influence of substrate.
The above protocols were used to determine MMP inhibition Ki constants for the compounds in Examples 1, 2, and 4-42 above. All Ki values in Table 3 are given in nM units.

[2] = target: T2, Human recombinant MMP-13 (Homo sapiens, UniProt P45452); assay: In vitro MMP inhibition analysis (fluorogenic peptide substrate), MMP-13; assay type: biochemical; conditions: human recombinant enzyme; 4 μM substrate (A); apparent Ki without substrate correction
T2 construct: made in house; host or cells: baculovirus / insect cells
Procedure: as §1, §2
The MMP-13 was obtained as a proenzyme from a full-length cDNA clone using baculovirus, as described by V. A. Luckow, “Insect Cell Expression Technology,” Protein Engineering: Principles and Practice, pp. 183-218 (edited by J. L. Cleland et al., Wiley-Liss, Inc., 1996). The expressed proenzyme was first purified over a heparin agarose column, and then over a chelating zinc chloride column. The proenzyme was then activated by APMA for use in the assay. […] See also, O'Reilly et al, Baculovirus Expression Vectors: A Laboratory Manual (W. H. Freeman and Co., New York, N.Y., 1992). See also, King et al., The Baculovirus Expression System: A Laboratory Guide (Chapman & Hall, London, England, 1992).
as §3, §4, §5, §6, §7
as §8, with “Modifications were made in the non-linear regression method to allow a common control reaction rate and effective enzyme concentration to be shared between all dose-response relationships on a given assay plate.” left out
All Ki values in Table 3 are given in nM units.

| Compound | Ki [1] | Ki [2] |
| --- | --- | --- |
| O=C(NO)C1(S(=O)(=O)c2ccc3c(c2)sc2nc(-c4ccccc4)cn23)CCOCC1 [Example 83] | > 10000 nM | 577 nM |
| CC(C)CN(C)C(=O)c1ccc(-c2ccc(S(=O)(=O)C3(C(=O)NO)CCOCC3)cn2)cc1 [Example 82] | > 10000 nM | 229 nM |
| O=C(NO)C1(S(=O)(=O)c2ccc3nc(N4CCC(Oc5ccc(OC(F)(F)F)cc5)CC4)sc3c2)CCOCC1 [Example 56] | > 10000 nM | 3.43 nM |

Other lines, results leading:

| Ki [1] | Ki [2] | Compound |
| --- | --- | --- |
| 4200 nM | 5.59 nM | CCCCNC(=O)c1ccc(-c2ccc(S(=O)(=O)C3(C(=O)NO)CCOCC3)cn2)cc1 [Example 76] |
| > 10000 nM | 18.8 nM | CCCCNC(=O)Cc1ccc(-c2ccc(S(=O)(=O)C3(C(=O)NO)CCOCC3)cn2)cc1 [Example 73] |
